The source of these data is PubChem BioAssay (NCI).

SMILES strings stand for the structures.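 Tested at 5 concentrations; 48 h exposure; 96-well plates; endpoints linearly interpolated, else capped at highest concentration. TGI: total growth inhibition.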 Where a SMILES comes first, the peptide text is derived from it. [ ]: non-standard residue; d: D form. The star is where a group is joined. Cbz = O=C(OCc1ccccc1)*; Boc = CC(C)(C)OC(=O)*; Aib = CC(C)(N)C(=O)O; OBn = c1ccc(CO*)cc1; OtBu = CC(C)(C)O*; βAla = NCCC(=O)O

Test systems include ACHN renal; NCI/ADR-RES ovarian; RPMI-8226 leukemia; MDA-N; OVCAR-5 ovarian; RXF 393 renal; SK-MEL-28 melanoma; SK-OV-3 ovarian; HOP-92 NSCLC; MOLT-4 leukemia.
Experiment in all cases: inhibition of tumour cell growth, NCI panel, 48 h

In the case of `CCCCCCCCCCCCCCCCCCOCC(O)COP(=O)(O)OCC1OC(n2cc(F)c(=O)[nH]c2=O)CC1O` (stereo not given), the TGI in the assay on ACHN renal was greater than 41.6 µM; with NCI/ADR-RES ovarian, 22 µM; with RPMI-8226 leukemia it was 22.5 µM; in the assay with MDA-N, 28.2 µM; in the assay with OVCAR-5 ovarian it was 26.3 µM; in the assay on RXF 393 renal, 29 µM. In addition, the TGI worked out at 28.8 µM in the assay on SK-MEL-28 melanoma, 44.8 µM in the assay on SK-OV-3 ovarian, 24.2 µM in the assay on HOP-92 NSCLC and 21.6 µM with MOLT-4 leukemia.
Take `COC(=O)C1(C(=O)OC)N=C(C)OC1C(C)C` (stereo not given): the TGI in the assay on ACHN renal, in the assay with NCI/ADR-RES ovarian, in the assay with RPMI-8226 leukemia, in the assay with MDA-N, with OVCAR-5 ovarian and in the assay on RXF 393 renal was greater than 100 µM throughout. Besides, the TGI with SK-MEL-28 melanoma, with SK-OV-3 ovarian, with HOP-92 NSCLC and in the assay on MOLT-4 leukemia was greater than 100 µM throughout.
On to `CCOC(=O)C(Cc1ccccc1)(Cc1ccc(O)cn1)NC(=O)c1ccccc1` (stereo not given), for which the TGI in the assay on ACHN renal was greater than 100 µM; in the assay on NCI/ADR-RES ovarian, greater than 100 µM; with RPMI-8226 leukemia, greater than 100 µM; with MDA-N, 23 µM; in the assay with OVCAR-5 ovarian it was greater than 100 µM; in the assay with RXF 393 renal it was greater than 100 µM. The TGI was greater than 100 µM in the assay on SK-MEL-28 melanoma, greater than 100 µM in the assay on SK-OV-3 ovarian, 59.1 µM in the assay on HOP-92 NSCLC and greater than 100 µM with MOLT-4 leukemia.
On to `CCCCSc1n/c(=C\c2ccc(N(C)C)cc2)c2nnnn12`, for which the TGI in the assay on ACHN renal, in the assay with NCI/ADR-RES ovarian, with RPMI-8226 leukemia, with MDA-N, in the assay on OVCAR-5 ovarian and in the assay with RXF 393 renal was greater than 100 µM throughout. Moreover, the TGI in the assay on SK-MEL-28 melanoma, with SK-OV-3 ovarian, in the assay on HOP-92 NSCLC and in the assay with MOLT-4 leukemia was greater than 100 µM in each case.
As for `COc1cc(/C=C2/SC(c3ccccc3)N(c3cccc([N+](=O)[O-])c3)C2=O)cc(OC)c1OC` (stereo not given), the TGI in the assay with ACHN renal is greater than 100 µM; in the assay with NCI/ADR-RES ovarian, greater than 100 µM; in the assay with RPMI-8226 leukemia it was greater than 100 µM; in the assay with MDA-N, 78.6 µM; in the assay with OVCAR-5 ovarian, greater than 100 µM; in the assay on RXF 393 renal, greater than 100 µM. In addition, the TGI in the assay on SK-MEL-28 melanoma, with SK-OV-3 ovarian, with HOP-92 NSCLC and in the assay on MOLT-4 leukemia was greater than 100 µM throughout.
`CC#CC(O)(C(=O)OC1CCCN(C)C1)C1=CC=CCC1` (stereo not given): the TGI in the assay on ACHN renal, in the assay on NCI/ADR-RES ovarian, with RPMI-8226 leukemia, in the assay with MDA-N, in the assay on OVCAR-5 ovarian and with RXF 393 renal was greater than 100 µM in each case. Moreover, the TGI in the assay with SK-MEL-28 melanoma, with SK-OV-3 ovarian, in the assay with HOP-92 NSCLC and in the assay with MOLT-4 leukemia was greater than 100 µM in each case.
As for `CCOC(=O)C(O)(NC(C)=O)C(F)(F)F` (stereo not given), the TGI with ACHN renal, with NCI/ADR-RES ovarian, in the assay with RPMI-8226 leukemia, in the assay with MDA-N, with OVCAR-5 ovarian and with RXF 393 renal was greater than 100 µM each time. In addition, the TGI in the assay on SK-MEL-28 melanoma, in the assay with SK-OV-3 ovarian, in the assay on HOP-92 NSCLC and in the assay with MOLT-4 leukemia was greater than 100 µM each time.
With `O=c1[nH]nc(Cc2ccc(Cl)cc2)n1O`, the TGI in the assay on ACHN renal, in the assay with NCI/ADR-RES ovarian, in the assay with RPMI-8226 leukemia, in the assay with MDA-N, with OVCAR-5 ovarian and with RXF 393 renal was greater than 100 µM in each case. Moreover, the TGI in the assay with SK-MEL-28 melanoma, in the assay with SK-OV-3 ovarian, in the assay on HOP-92 NSCLC and in the assay on MOLT-4 leukemia was greater than 100 µM throughout.
As for `NC(=O)CC(Nc1ncc2c(n1)-c1ccccc1OC2)C(=O)O` (stereo not given), the TGI in the assay with ACHN renal is greater than 100 µM; in the assay with NCI/ADR-RES ovarian it was greater than 100 µM; with RPMI-8226 leukemia, 82.5 µM; with MDA-N, greater than 100 µM; with OVCAR-5 ovarian it was greater than 100 µM; with RXF 393 renal, greater than 100 µM. The TGI with SK-MEL-28 melanoma, in the assay with SK-OV-3 ovarian, in the assay on HOP-92 NSCLC and in the assay on MOLT-4 leukemia was greater than 100 µM each time.
As to `COc1ccc(OC)c2cc(Cc3ccc(N(C)C)cc3)c(=O)c(Cc3ccc(N(C)C)cc3)cc12`, the TGI in the assay on ACHN renal is greater than 100 µM; with NCI/ADR-RES ovarian, greater than 100 µM; in the assay with RPMI-8226 leukemia, 84.5 µM; in the assay with MDA-N, greater than 100 µM; in the assay with OVCAR-5 ovarian, greater than 100 µM; with RXF 393 renal, greater than 100 µM. Further, the TGI in the assay on SK-MEL-28 melanoma, in the assay on SK-OV-3 ovarian, in the assay with HOP-92 NSCLC and in the assay with MOLT-4 leukemia was greater than 100 µM throughout.
Regarding `CCOP(=O)(OCC)C(Nc1ccc(F)cc1)c1cccc([N+](=O)[O-])c1` (stereo not given), the TGI in the assay on ACHN renal, in the assay with NCI/ADR-RES ovarian, in the assay with RPMI-8226 leukemia, with MDA-N, in the assay on OVCAR-5 ovarian and in the assay on RXF 393 renal was greater than 100 µM throughout. Further, the TGI in the assay with SK-MEL-28 melanoma, in the assay on SK-OV-3 ovarian, with HOP-92 NSCLC and with MOLT-4 leukemia was greater than 100 µM each time.
On to `COC1/C=C/C(C)C(C(C)C(OC)C(C)CCC(=O)C(C)C(CCC(=O)O)OC)OC(=O)/C=C/C=C(\C)CC(OC)CC2=CC(=O)O[C@@H](C(C)C(OC)CC(OC)/C=C/C(C)C(OC)C1)[C@H]2O` (stereo not given in full), for which the TGI was 2.93 µM with ACHN renal; greater than 5 µM in the assay with NCI/ADR-RES ovarian; greater than 3.94 µM in the assay with RPMI-8226 leukemia; greater than 5 µM with MDA-N; greater than 5 µM in the assay with OVCAR-5 ovarian; 1.49 µM in the assay with RXF 393 renal. In addition, the TGI with SK-MEL-28 melanoma was greater than 3.29 µM; in the assay with SK-OV-3 ovarian, 4.06 µM; in the assay on HOP-92 NSCLC, 1.36 µM; with MOLT-4 leukemia, greater than 3.93 µM.
In the case of `CC(C)(C)OC(=O)N1C(OP(=O)(Oc2ccccc2)Oc2ccccc2)=COc2cccnc21`, the TGI is greater than 100 µM with ACHN renal; greater than 100 µM in the assay with NCI/ADR-RES ovarian; 53.2 µM in the assay with RPMI-8226 leukemia; greater than 100 µM in the assay with MDA-N; greater than 100 µM with OVCAR-5 ovarian; greater than 100 µM in the assay with RXF 393 renal. Besides, the TGI was greater than 100 µM in the assay on SK-MEL-28 melanoma, greater than 100 µM in the assay with SK-OV-3 ovarian, 92.5 µM in the assay with HOP-92 NSCLC and 43.3 µM with MOLT-4 leukemia.
As to `Cc1cc(S(=O)(=O)Nc2nnc3cc(C(F)(F)F)cc(C)n23)c(S)cc1Cl`, the TGI in the assay with ACHN renal, in the assay on NCI/ADR-RES ovarian, in the assay with RPMI-8226 leukemia, with MDA-N, in the assay on OVCAR-5 ovarian and with RXF 393 renal was greater than 100 µM throughout. Besides, the TGI is greater than 100 µM in the assay with SK-MEL-28 melanoma, greater than 90.2 µM in the assay on SK-OV-3 ovarian, greater than 100 µM in the assay on HOP-92 NSCLC and greater than 100 µM in the assay on MOLT-4 leukemia.
With `CC(C)(C)OC(=O)CC(NC(=O)OC(C)(C)C)C(=O)NC(CCCCNC(=O)OCc1ccccc1)C(=O)NC(C)(C)C(=O)NCCC(=O)OCc1ccccc1` (stereo not given) (Boc-D(OtBu)K(Cbz)[Aib][βAla]-OBn; configuration not given here), the TGI in the assay on ACHN renal, in the assay on NCI/ADR-RES ovarian, with RPMI-8226 leukemia, in the assay with MDA-N, in the assay with OVCAR-5 ovarian and in the assay with RXF 393 renal was greater than 100 µM throughout. Moreover, the TGI with SK-MEL-28 melanoma, in the assay with SK-OV-3 ovarian, in the assay on HOP-92 NSCLC and with MOLT-4 leukemia was greater than 100 µM in each case.
For the compound `N#CCCN(CCCN(C(=O)Nc1ccccc1)c1ccccc1)C(=O)Nc1ccccc1`, the TGI with ACHN renal, with NCI/ADR-RES ovarian, with RPMI-8226 leukemia, in the assay with MDA-N, in the assay on OVCAR-5 ovarian and with RXF 393 renal was greater than 100 µM throughout. Further, the TGI in the assay with SK-MEL-28 melanoma, in the assay on SK-OV-3 ovarian, with HOP-92 NSCLC and in the assay on MOLT-4 leukemia was greater than 100 µM in each case.
